These results are taken from article PMC10758494 (Frontiers in Pharmacology, 2023).

“And” between values parts separate entries of the source, which are not always exact repeats. Equal entries are not always repeated. Where two headings read alike, the source gives them in different places. Positions of bridges follow the written chain, without caps; N, C: chain ends. Residues, ends and D or L forms follow the SMILES beside them. A value given as a limit tells only on which side of the number the result lay.

What is called IC50 is the concentration needed to halve the response being measured. As usually defined, the inhibition is the percentage by which the read-out fell short of the control.

Test [1] addresses T1, human α7 nAChR (Homo sapiens, UniProt P36544).
T1 construct: α7 nAChR endogenously expressed in neuroblastoma SH-SY5Y cells; endogenous in cells; host or cells: SH-SY5Y human neuroblastoma cells
As to the kind of experiment: cell-based. The note with it: for inhibition at 500 µM: read-out: Inhibition of PNU282987-evoked response.

The target of test [2] is T2, rat α9α10 nAChR (Rattus norvegicus, UniProt P43144+Q9JLB5).
T2 construct: expressed in transfected cells; host or cells: Xenopus laevis oocytes injected with cRNA
As to the kind of experiment: cell-based. The following applies: for IC50: 500 μM ACh, X. laevis oocytes.

The subject of test [3] is SH-SY5Y cells. As to the kind of experiment: Calcium imaging, effect of compound alone on [Ca2+]i in SH-SY5Y cells. The note with it: 10 μM, without α7 nAChR activation. The class given is cell-based, human.
For test [4], the target named is T3, human α9α10 nAChR (Homo sapiens, UniProt Q9GZZ6+Q9UGM1).
T3 construct: expressed in transfected cells; host or cells: Xenopus laevis oocytes injected with cRNA
Details: method as in Lebedev et al., 2019. The following applies: read-out: IC50 on α9α10 nAChR; 95% CI in brackets; ref Lebedev et al., 2019; cited from earlier work.

The target of test [5] is T3, human α9α10 nAChR. As to the kind of experiment: Two-electrode voltage clamp, human α9α10 nAChR in X. laevis oocytes. It counts as cell-based. The following applies: IC50, inhibition of ACh-evoked currents (α9α10 nAChR), 500 μM ACh, mean ± SEM. A general note: In two-electrode clamp one electrode senses voltage and the other passes current.

T2 sequence (P43144 26-479): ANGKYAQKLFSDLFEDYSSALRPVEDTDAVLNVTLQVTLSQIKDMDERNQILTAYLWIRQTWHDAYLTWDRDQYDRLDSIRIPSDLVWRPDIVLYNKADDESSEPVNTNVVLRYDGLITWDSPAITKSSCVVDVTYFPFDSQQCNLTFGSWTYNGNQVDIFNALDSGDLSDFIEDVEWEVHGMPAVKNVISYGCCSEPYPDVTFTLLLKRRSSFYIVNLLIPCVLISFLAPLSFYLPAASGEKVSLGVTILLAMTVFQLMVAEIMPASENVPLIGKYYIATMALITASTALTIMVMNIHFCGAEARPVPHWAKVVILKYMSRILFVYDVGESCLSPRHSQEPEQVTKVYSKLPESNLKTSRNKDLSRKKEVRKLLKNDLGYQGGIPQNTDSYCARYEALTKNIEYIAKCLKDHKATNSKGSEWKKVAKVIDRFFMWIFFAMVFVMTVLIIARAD
T2 sequence (Q9JLB5 25-447): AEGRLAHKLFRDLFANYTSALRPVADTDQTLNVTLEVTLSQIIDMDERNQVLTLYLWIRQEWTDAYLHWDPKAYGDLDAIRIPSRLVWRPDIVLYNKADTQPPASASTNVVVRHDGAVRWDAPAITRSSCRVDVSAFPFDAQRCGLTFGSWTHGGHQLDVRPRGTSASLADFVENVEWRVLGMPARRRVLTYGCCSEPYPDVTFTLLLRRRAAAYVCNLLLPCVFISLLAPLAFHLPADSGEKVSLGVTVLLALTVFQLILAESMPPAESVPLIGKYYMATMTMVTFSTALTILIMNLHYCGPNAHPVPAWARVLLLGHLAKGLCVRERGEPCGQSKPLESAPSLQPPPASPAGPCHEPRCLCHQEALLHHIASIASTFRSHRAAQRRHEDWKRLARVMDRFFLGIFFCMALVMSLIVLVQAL
T3 sequence (Q9UGM1 26-479 limits assumed): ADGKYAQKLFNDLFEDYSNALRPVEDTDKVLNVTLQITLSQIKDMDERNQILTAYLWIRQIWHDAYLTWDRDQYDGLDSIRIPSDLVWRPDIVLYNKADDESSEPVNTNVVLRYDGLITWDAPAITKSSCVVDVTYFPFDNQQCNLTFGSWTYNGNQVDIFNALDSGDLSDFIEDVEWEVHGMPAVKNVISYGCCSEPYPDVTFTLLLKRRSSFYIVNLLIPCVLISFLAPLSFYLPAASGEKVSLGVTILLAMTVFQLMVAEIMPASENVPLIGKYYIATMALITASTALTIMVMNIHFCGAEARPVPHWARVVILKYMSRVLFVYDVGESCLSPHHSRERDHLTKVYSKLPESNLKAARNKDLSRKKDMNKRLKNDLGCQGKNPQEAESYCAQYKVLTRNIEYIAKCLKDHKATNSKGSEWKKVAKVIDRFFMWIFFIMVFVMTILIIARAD
T3 sequence (Q9GZZ6 25-450): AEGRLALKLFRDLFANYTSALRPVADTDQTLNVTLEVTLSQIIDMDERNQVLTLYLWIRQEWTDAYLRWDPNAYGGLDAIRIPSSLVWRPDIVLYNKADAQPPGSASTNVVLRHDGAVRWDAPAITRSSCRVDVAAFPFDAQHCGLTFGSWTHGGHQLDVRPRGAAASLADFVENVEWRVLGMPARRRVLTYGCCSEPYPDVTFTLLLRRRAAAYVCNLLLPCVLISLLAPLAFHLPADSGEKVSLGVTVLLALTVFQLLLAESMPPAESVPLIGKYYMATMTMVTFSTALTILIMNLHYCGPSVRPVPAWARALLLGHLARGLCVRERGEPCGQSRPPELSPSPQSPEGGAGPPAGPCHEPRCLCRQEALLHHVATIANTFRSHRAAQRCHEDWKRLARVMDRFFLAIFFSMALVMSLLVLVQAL
T1 sequence (P36544 23-502): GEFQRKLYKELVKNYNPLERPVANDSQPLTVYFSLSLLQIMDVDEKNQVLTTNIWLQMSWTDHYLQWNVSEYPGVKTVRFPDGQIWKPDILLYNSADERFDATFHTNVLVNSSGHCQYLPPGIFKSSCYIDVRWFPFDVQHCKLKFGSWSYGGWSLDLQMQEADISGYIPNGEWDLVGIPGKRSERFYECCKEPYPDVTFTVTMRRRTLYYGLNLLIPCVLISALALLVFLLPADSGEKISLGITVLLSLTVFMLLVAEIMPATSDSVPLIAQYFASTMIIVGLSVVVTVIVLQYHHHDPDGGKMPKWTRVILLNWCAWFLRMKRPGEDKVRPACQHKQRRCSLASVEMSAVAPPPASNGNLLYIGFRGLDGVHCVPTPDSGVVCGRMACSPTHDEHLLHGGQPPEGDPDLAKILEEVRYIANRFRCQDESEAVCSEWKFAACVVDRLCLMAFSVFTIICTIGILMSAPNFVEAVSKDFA

In the case of α-cobratoxin [CTX], in test [1] (compound 5 μM, 200 nM PNU282987, SH-SY5Y cells), the “Suppression of α7 nAChR activity” value is “completely suppressed”. `CC(CN)CNCCCCNCC(C)CN` (racemic) [rac-2,11-Me2Spm]: the IC50 in test [2] (read-out: IC50, inhibition of rat α9α10 nAChR) was approximately 500000 nM. Turning to `N=C(N)NCCC[C@H](N)C(=O)NCCCNCCCNCCCCCNC(=O)[C@H](CC(N)=O)NC(=O)Cc1ccc(O)cc1O` [AgTx-636, argiotoxin-636], the inhibition at 10 µM in test [1] (SH-SY5Y, read-out: Inhibition of the action of α7 nAChR agonist PNU282987) was not below 70%. Further, the IC50 in test [2] (IC50, inhibition of ACh-evoked currents (rat α9α10 nAChR)) was ~200 nM and 220 nM. Besides, in test [3], the “[Ca2+]i change caused by the compound alone” value was “noticeable [Ca^2+]i increase”.

For the compound `N=C(N)NCCC[C@H](NC(=O)[C@H](CCCNC(=N)N)NC(=O)[C@H](CCCNC(=N)N)NC(=O)[C@H](CCCNC(=N)N)NC(=O)[C@H](CCCNC(=N)N)NC(=O)[C@H](CCCNC(=N)N)NC(=O)[C@H](CCCNC(=N)N)NC(=O)[C@@H](N)CCCNC(=N)N)C(=O)O` [R8, octa-arginine], the results for the IC50 in test [1] and in test [4] were 14.5 ± 1 nM and 44 nM, respectively. Turning to `N=C(N)NCCC[C@@H]1NC(=O)[C@H](CCCNC(=N)N)NC(=O)[C@H](CCCNC(=N)N)NC(=O)[C@H](CCCNC(=N)N)NC(=O)[C@H](CCCNC(=N)N)NC(=O)[C@H](CCCNC(=N)N)NC(=O)[C@H](CCCNC(=N)N)NC(=O)[C@H](CCCNC(=N)N)NC(=O)[C@@H](N)CSSC[C@@H](C(=O)O)NC1=O` [“cyclo”R8] (H-CRRRRRRRRC-OH; disulfide 1-10), the IC50 in test [1] is 13.3 ± 3 nM; in test [5], ~60 nM and 61.8 nM. As for `NCCCNCCCCNCCCN` [Spm, spermine], in test [1] (SH-SY5Y), the inhibition at 500 µM was approximately 20%. The “Inhibition of rat α9α10 nAChR at 500 μM” value in test [2] was “no inhibition”.

Consider `NCCCCN=C(N)N` [Agm, agmatine], for which the inhibition at 500 µM in test [1] (SH-SY5Y) was approximately 20%.
